Assay results as given in article PMC11666850, “Development and evaluation of deuterated [^18F]JHU94620 isotopologues for the non-invasive assessment of the cannabinoid type 2 receptor in brain” (EJNMMI Radiopharmacy and Chemistry, 2024).
Where “and” joins values, the source holds several entries; their conditions need not be identical. Identical values can stand only once.

Legend:
CB2R = target: T1, CB2R (Rattus norvegicus, UniProt Q9QZN9); assay: Quantitative autoradiography, rat spleen cryosections; format: binding
T1 construct: from tissue; host or cells: rat spleen: cryosections in vitro, and spleen of living Wistar rats in PET
T1 sequence (Q9QZN9 1-360): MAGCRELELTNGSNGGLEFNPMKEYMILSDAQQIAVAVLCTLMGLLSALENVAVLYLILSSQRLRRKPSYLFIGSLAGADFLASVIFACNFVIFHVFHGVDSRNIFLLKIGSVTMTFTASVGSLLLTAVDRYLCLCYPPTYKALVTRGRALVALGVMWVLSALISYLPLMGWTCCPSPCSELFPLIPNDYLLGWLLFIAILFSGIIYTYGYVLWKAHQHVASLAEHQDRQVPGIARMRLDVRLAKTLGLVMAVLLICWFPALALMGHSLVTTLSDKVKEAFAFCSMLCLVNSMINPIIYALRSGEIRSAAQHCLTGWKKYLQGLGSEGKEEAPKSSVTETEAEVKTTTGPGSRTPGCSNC
Procedure: For quantitative autoradiography in different species, 10 µm cryosections from mouse, rat and piglet spleen were thawed, dried, and pre-incubated with incubation buffer for 10 min, dried under an airstream. Subsequently, the incubation buffer containing [^18F]JHU94620-d8 (59–137 GBq µmol^−1, 1.7–3.6 nM) was added alone or together with indicated concentrations of the reference compound. Additionally, to assess the non-specific binding of [^18F]JHU94620-d8 to cryosections GW405833 was added instead of the reference compound. After 90 min, cryosections were washed two times for 2 min with ice-cold 50 mM Tris HCl, pH7.4 and 10 s in ddH2O and subsequently dried under an airstream. For the calculation of the radioactivity concentration, 5 µl of five serial 1:2 dilutions of the incubation buffer with [^18F]JHU94620-d8 were air-dried on a microscopic slide. For binding studies in rat spleen cryosections by autoradiography with HLM-derived radiometabolites of [^18F]JHU94620-d8 obtained from the radiometabolite assay, the samples were added to the incubation buffer to a final activity concentration of 0.2 MBq mL^−1 and protocol was followed as described above. Subsequently, the slides were exposed to a phosphor imager plate. After scanning at high sensitivity and a 12.5 µm resolution with a CR35 Bio image plate scanner (Raytest Isotopenmessgeräte GmbH, Straubenhardt, Germany). The analyses of the autoradiographic images were performed with the AIDA 5.1 software (Elysia-Raytest, Angleur, Belgium) resulting in a resolution of 12.617 pixel × 12.616 pixel per µm^2 (1 voxel = 1592 µm^3 ≙ 1.59 10^–3 µg wet tissue) and inhibition curves were created with GraphPad Prism 9.5.1 (GraphPad Inc., La Jolla, CA).
The KD values were calculated with GraphPad Prism according to the modified Cheng-Prusoff method for homologous competitive binding studies, where the KD = Ki = IC50—[radioligand] and the Bmax = specific binding / [radioligand] / ((KD + [radioligand])) (Motulsky and Neubig [2000]), assuming a total protein content of 8.2% (1.3 10^–4 µg protein per voxel) in the spleen (Zaia et al. [2000]) or by determining the protein concentration of the cell membrane lysates using a BCA assay (Thermo Scientific, Braunschweig, Germany). The fractional occupancy defined as occupied binding sites per total binding sites is used to describe the binding fraction specifically bound to CB2R compared to unspecific binding, where [L] is the concentration of the ligand at the start of incubation.

[1] = format: in vitro ADME; settings: Wistar, rat
Procedure: From the wildtype rats used for in vivo metabolism studies a hematocrit content of 0.56 ± 0.04 (n = 11) was determined by a 5 min centrifugation of 50 µl blood in a hematocrit centrifuge at 500 g. The free plasma fraction (fp) of [^18F]JHU94620-d8 was determined gravimetrically by ultrafiltration of 100 µl rat plasma samples incubated for 5, 15, 30 and 60 min at 37 °C for 20 min at 14,000 g utilizing Nanosep® centrifugal filters (10 kDa, Pall Laboratory, USA). The brain PET images were co-registered to the PMOD integrated Px Rat (W. Schiffer) T2 MR template and the brain stem, cerebellum, left cortex and left midbrain region from the corresponding brain atlas were used for the determination of the regional TACs. Due to high spillover signals from the hCB2R(D80N) expressing region not all provided atlas regions could be evaluated. Subsequently, the total tissue distribution (VT) was estimated by 2-tissue compartment modelling. For correction of the TACs, an averaged image-derived input function (pIDIF, plasma-to-whole blood ratio corrected), determined in biodistribution studies and the parent fraction derived from metabolism studies in Wistar rats (Watabe fit) and pIDIF (3-exponential fit) were integrated into the modelling process. The binding potential was estimated by a simplified reference tissue modelling (SRTM) using the cerebellar region as reference. […]

Q: Which results are given for `[2H]C([2H])([18F])C([2H])([2H])C([2H])([2H])C([2H])([2H])n1c(C)c(C)s/c1=N\C(=O)C1C(C)(C)C1(C)C` [[^18F]JHU94620-d8]?
A: Kd (CB2R; KD values determined by autoradiography, rat and mouse spleen (range over both species)): 0.74 to 1.98 nM; Kd (CB2R; KD, rat spleen cryosection, homologous displacement autoradiography, n = 3): 0.74 nM; specific binding to CB2R (CB2R; rat spleen cryosections, blocking with 10 µM GW405833 or self-blocking): 48 ± 6% and 48%; Bmax (CB2R; spleen of rats): 0.08 pmol mg^−1 protein; free plasma fraction (fp) [1]: 0.3 ± 0.1
